Numbered stars: 1 amine (or outer) side, 2 acyl side, 3 side chain; on linkers, the order of the positions; unused ones are H or OH. Square brackets hold non-standard residues; d marks the D form. Peptide text beside a SMILES is read from it. * marks the point of attachment. X4 = N#Cc1cccc(C[C@@H]2C[C@@H](C(=O)[*:2])N([*:1])C2)c1; Pro(trans-4-cHex) = O=C(O)[C@@H]1C[C@@H](C2CCCCC2)CN1; Trp(6-Cl) = N[C@@H](Cc1c[nH]c2cc(Cl)ccc12)C(=O)O; Phe(4-CN) = N#Cc1ccc(C[C@H](N)C(=O)O)cc1; X13 = CC1(C)CC[C@@H](C(=O)[*:2])N1[*:1]; Phe(4-F) = N[C@@H](Cc1ccc(F)cc1)C(=O)O; Hyp = O=C(O)[C@@H]1C[C@@H](O)CN1; dPip = O=C(O)[C@H]1CCCCN1; Ac5c = NC1(C(=O)O)CCCC1; Dab = NCC[C@H](N)C(=O)O; Bn = c1ccc(C*)cc1
Experiments:
human CCR10 [1] = biological target: T1, human CCR10 (Homo sapiens, UniProt P46092); experiment: Calcium flux assay (CCR10 antagonism, CCL27 as agonist); assay type: cell-based; conditions: CCR10 transfected 300-19 murine pre-B cells; CCL27 30 nM
T1 construct: expressed in transfected cells
T1 sequence (P46092 1-362): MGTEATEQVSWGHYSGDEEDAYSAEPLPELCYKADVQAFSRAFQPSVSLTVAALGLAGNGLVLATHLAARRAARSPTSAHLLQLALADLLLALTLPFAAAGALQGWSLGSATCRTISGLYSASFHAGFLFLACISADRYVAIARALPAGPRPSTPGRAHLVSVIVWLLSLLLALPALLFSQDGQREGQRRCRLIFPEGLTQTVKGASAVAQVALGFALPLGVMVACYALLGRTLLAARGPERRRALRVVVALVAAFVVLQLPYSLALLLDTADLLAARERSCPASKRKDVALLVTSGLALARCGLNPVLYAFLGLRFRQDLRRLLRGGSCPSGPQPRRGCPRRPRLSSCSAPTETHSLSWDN
Method: (§1) Lyophilized peptides were weighed on a Microbalance (Mettler MX5) and dissolved in aqueous 90% DMSO to a final concentration of 10 mM unless otherwise stated. Stock solutions were kept at +4° C., and protected from light.
(§2) Peptides were assayed for CCR10 antagonism in a calcium flux assay and in a chemotaxis assay using a mouse pre-B cell line 300-19 stably transfected with human CCR10, and with human CCL27 as agonist.
The calcium flux release was assessed using CCR10 transfected 300-19 murine pre-B cells. These cells were labeled as a batch with Calcium4 Reagent (Molecular Devices, Sunnyvale, Calif.) in HBSS buffer for 60 min.
After dispensing 8×10^4 cells in each well of a 384-well black plate, a concentrated solution of the β-hairpin peptidomimetics of this invention in HBSS+0.1% BSA+0.1% DMSO (final concentration) was added to the cells. The entire plate was centrifuged and placed in a Flexstation II (Molecular Devices) automated plate reader. After reading a 20 s baseline, the Flexstation dispensed CCL27 (RnD systems) at a final concentration of 30 nM in HBSS+0.1% BSA onto the cells and calcium flux was measured for an additional 70 s.
Alternatively a FIipR384 (Molecular Devices) was used for read out of the 384-well plates. In this case about 8×10^4 cells were placed in each well, centrifuged, placed in the FlipR and after 5 s of baseline reading, the β-hairpin peptidomimetics in HBSS+0.1% BSA+0.1% DMSO (final concentration) were added. After an incubation time of 5 min, the CCL27 solution was added to the mixture and the calcium flux was measured for 200 s.
The maximum signal was determined from control wells without inhibitor. Percentage of inhibition was calculated from a range of compound concentrations, which were subsequently used to calculate IC50 values (Softmax Pro, Molecular Devices). All steps were carried out at room temperature.

human CCR10 [2] = biological target: T1, human CCR10; experiment: Chemotaxis assay (CCR10-transfected 300-19 cells, CCL27 gradient); assay type: cell-based; conditions: CCR10-transfected 300-19 murine pre-B cells; 30 nM CCL27 gradient
Method: as §1, §2
The chemotactic response of CCR10-transfected 300-19 murine pre-B cells to a gradient of CCL27 (CTACK) was measured using disposable Transwell® assay plates from Costar (5 μm pore size) according to the protocol of the manufacturer. Briefly, cells were grown under sterile conditions at 37° C. with 5% CO2 in flasks containing RPMI+5% FCS, glutamine, penicillin/streptomycin (all media components were from Life Technologies) and the appropriate selection antibiotics (Puromycin, G418 or Tetracycline). For the assay, cells were pelleted by centrifugation, washed once in Dulbecco's phosphate buffered saline (DPBS), and resuspended to give 1×10^6 cells/ml in RPMI+0.5% bovine serum albumin (BSA). 100 μl of cell suspension was applied to the top of the assay filter. The β-hairpin peptidomimetics, diluted in the same assay medium, were added to both top and bottom chambers. The cells were allowed to migrate for 4-6 hours at 37° C. into the bottom chamber of the assay plate containing 30 nM of CCL27 (RnD systems). Migrated cells were counted using a FACS cytometer (Cytomics FC500, Beckman Coulter). Data normalization was performed using the number of any cells that had migrated in the absence of the β-hairpin peptidomimetic and the number of cells that have randomly migrated in absence of CCL27 [these values were taken as 100% (no inhibitory activity) and 0%, respectively]. From a range of compound concentrations IC50 were determined using Prism5 (GraphPad software).

Row | SMILES | IC50 (human CCR10 [1]) [nM] | IC50 (human CCR10 [2]) [nM]
1 | NCC[C@@H]1NC(=O)[C@H](Cc2c[nH]c3ccccc23)NC(=O)C2(CCCC2)NC(=O)[C@H](Cc2c[nH]c3ccccc23)NC(=O)[C@@H]2C[C@@H](C3CCCCC3)CN2C(=O)[C@H]2CCCN2C1=O [compound 41, cyclo(-Trp-Cyp-Trp-Dab-^DPro-Pro((4S)cHex)-)] (cyclo([Ac5c]W[Dab][dP][Pro(trans-4-cHex)]W)) | 54.3 ± 22 | 140
2 | CC1(C)CC[C@H]2C(=O)N[C@@H](Cc3c[nH]c4ccccc34)C(=O)NC3(CCCC3)C(=O)N[C@@H](Cc3c[nH]c4ccccc34)C(=O)N[C@@H](CCN)C(=O)N3CCC[C@@H]3C(=O)N21 [compound 42, cyclo(-Trp-Cyp-Trp-Dab-^DPro-Pro(5,5Me2)-)] (cyclo(W[Ac5c]W[Dab][dP][X13])) | 82.5 ± 30.4 | 14.2
3 | NCC[C@@H]1NC(=O)[C@H](Cc2c[nH]c3ccccc23)NC(=O)C2(CCCC2)NC(=O)[C@H](Cc2c[nH]c3ccccc23)NC(=O)[C@@H]2C[C@@H](OCc3ccccc3)CN2C(=O)[C@H]2CCCN2C1=O [compound 45, cyclo(-Trp-Cyp-Trp-Dab-^DPro-Hyp(Bn)-)] (cyclo([Ac5c]W[Dab][dP][Hyp](Bn)W)) | 65.8 ± 19.6 | 14
4 | N#Cc1ccc(C[C@@H]2NC(=O)[C@@H]3C[C@@H](OCc4ccccc4)CN3C(=O)[C@H]3CCCN3C(=O)[C@H](CCN)NC(=O)[C@H](Cc3c[nH]c4ccccc34)NC(=O)C3(CCCC3)NC2=O)cc1 [compound 49, cyclo(-Phe(4CN)-Cyp-Trp-Dab-^DPro-Hyp(Bn)-)] (cyclo([Ac5c]W[Dab][dP][Hyp](Bn)[Phe(4-CN)])) | 181 ± 110 | 5.3

Stronger by IC50 (human CCR10 [1]), values ahead:

Row | IC50 (human CCR10 [1]) [nM] | IC50 (human CCR10 [2]) [nM] | SMILES
5 | 27.9 ± 10.5 | 3.8 | N#Cc1cccc(C[C@@H]2C[C@H]3C(=O)N[C@@H](Cc4c[nH]c5ccccc45)C(=O)NC4(CCCC4)C(=O)N[C@@H](Cc4c[nH]c5ccccc45)C(=O)N[C@@H](CCN)C(=O)N4CCC[C@@H]4C(=O)N3C2)c1 [compound 40, cyclo(-Trp-Cyp-Trp-Dab-^DPro-Pro((4R)3CNBn)-)] (cyclo([Ac5c]W[Dab][dP][X4]W))
6 | 12.6 ± 9 | 35.4 | O=C1NC2(CCCC2)C(=O)N[C@@H](Cc2c[nH]c3ccccc23)C(=O)N[C@@H](CO)C(=O)N2CCC[C@@H]2C(=O)N2C[C@H](OCc3ccccc3)C[C@H]2C(=O)N[C@H]1Cc1c[nH]c2ccccc12 [compound 46, cyclo(-Trp-Cyp-Trp-Ser-^DPro-Hyp(Bn)-)] (cyclo([Ac5c]WS[dP][Hyp](Bn)W))
7 | 8.5 ± 3.5 | 8.6 | NCC[C@@H]1NC(=O)[C@H](Cc2c[nH]c3ccccc23)NC(=O)C2(CCCC2)NC(=O)[C@H](Cc2c[nH]c3cc(Cl)ccc23)NC(=O)[C@@H]2C[C@@H](OCc3ccccc3)CN2C(=O)[C@H]2CCCN2C1=O [compound 48, cyclo(-Trp(6Cl)-Cyp-Trp-Dab-^DPro-Hyp(Bn)-)] (cyclo([Ac5c]W[Dab][dP][Hyp](Bn)[Trp(6-Cl)]))
8 | 1.9 ± 2.1 | 13.5 | N#Cc1ccc(C[C@@H]2NC(=O)[C@@H]3C[C@@H](OCc4ccccc4)CN3C(=O)[C@H]3CCCN3C(=O)[C@H](CO)NC(=O)[C@H](Cc3ccc(F)cc3)NC(=O)C3(CCCC3)NC2=O)cc1 [compound 44, cyclo(-Phe(4CN)-Cyp-Phe(4F)-Ser-^DPro-Hyp(Bn)-)] (cyclo([Ac5c][Phe(4-F)]S[dP][Hyp](Bn)[Phe(4-CN)]))
9 | 0.5 ± 0.2 | 1.8 | N#Cc1ccc(C[C@@H]2NC(=O)[C@@H]3C[C@@H](OCc4ccccc4)CN3C(=O)[C@H]3CCCCN3C(=O)[C@H](CO)NC(=O)[C@H](Cc3c[nH]c4ccccc34)NC(=O)C3(CCCC3)NC2=O)cc1 [compound 50, cyclo(-Phe(4CN)-Cyp-Trp-Ser-^DPip-Hyp(Bn)-)] (cyclo([Ac5c]WS[dPip][Hyp](Bn)[Phe(4-CN)]))

Source: patent US8754038B2, “Template-fixed peptidomimetics with CCR10 antagonistic activity” (priority 2009, dated 2014)
